From patent US9951065B2 (Gilead Sciences, Inc., priority 2015, dated 2018)

Target: T1, IDO1 (Homo sapiens, UniProt P14902)
T1 construct: HeLa cells were treated with a test compound in the presence of IFNγ, which induces IDO1 expression; host or cells: H1-HeLa cells, IDO1 induced with IFNγ
Test: Cell-based (HeLa) assay for measurement of IDO1 inhibition (kynurenine levels in supernatant after IFNγ induction)
Conditions: HeLa cells, IFNγ-induced IDO1, kynurenine in supernatant after 48 hour incubation; geometric mean of a minimum of four determinations
Summary of the method: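 IDO1 activity is read as kynurenine released into the medium, detected with Ehrlich's reagent (p-dimethylaminobenzaldehyde) at 480 nm after TCA treatment. HeLa cells were exposed 48 h to compounds in 0.5% DMSO alongside IFNγ induction. Values normalized to no-IFNγ and IFNγ controls; four-parameter EC50 given as geometric mean of ≥4 determinations.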

T1 sequence (P14902 whole entry): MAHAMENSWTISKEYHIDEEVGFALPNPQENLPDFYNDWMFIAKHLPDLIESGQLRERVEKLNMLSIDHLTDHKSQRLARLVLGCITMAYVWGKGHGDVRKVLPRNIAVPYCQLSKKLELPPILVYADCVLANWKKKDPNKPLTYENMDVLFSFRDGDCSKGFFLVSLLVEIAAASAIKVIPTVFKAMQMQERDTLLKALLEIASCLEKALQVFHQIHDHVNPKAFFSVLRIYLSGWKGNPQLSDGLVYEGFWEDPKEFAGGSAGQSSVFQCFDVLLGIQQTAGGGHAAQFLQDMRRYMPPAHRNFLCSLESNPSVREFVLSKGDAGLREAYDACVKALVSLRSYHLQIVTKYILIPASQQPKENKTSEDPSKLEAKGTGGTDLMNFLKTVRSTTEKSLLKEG

Point of comparison: `O/N=C(\Nc1ccc(F)c(Cl)c1)c1ccnc2nc(NCCN3CC[C@H](O)C3)[nH]c12` [Example 279, (S)—N-(3-chloro-4-fluorophenyl)-N′-hydroxy-2-((2-(3-hydroxypyrrolidin-1-yl)ethyl)amino)-1H-imidazo[4,5-b]pyridine-7-carboximidamide], EC50 5.28 µM. Against it:
- O/N=C(\Nc1ccc(F)c(Cl)c1)c1cc(F)c(F)c2nc(NC3CC(O)C3)[nH]c12 (stereo not drawn) [Example 296, N-(3-chloro-4-fluorophenyl)-4,5-difluoro-N′-hydroxy-2-((3-hydroxycyclobutyl)amino)-1H-benzo[d]imidazole-7-carboximidamide] — higher, > 10 µM
- O/N=C(\Nc1ccc2ccccc2c1)c1ccnc2nc[nH]c12 [Example 102, N′-hydroxy-N-(naphthalen-2-yl)-1H-imidazo[4,5-b]pyridine-7-carboximidamide] — 2.7-fold lower, 1.93 µM
- CC#Cc1cc(N/C(=N\O)c2ccnc3nc[nH]c23)ccc1F [Example 84, N-(4-Fluoro-3-(prop-1-yn-1-yl)phenyl)-N′-hydroxy-1H-imidazo[4,5-b]pyridine-7-carboximidamide] — 12-fold lower, 0.445 µM
- OCc1nc2c(/C(=N/O)Nc3ccc(F)c(Cl)c3)cc(F)c(F)c2[nH]1 [Example 46, N-(3-Chloro-4-fluorophenyl)-4,5-difluoro-N′-hydroxy-2-(hydroxymethyl)-1H-benzo[d]imidazole-7-carboximidamide] — 6.3-fold lower, 0.835 µM
- NC1(CNc2nc3nccc(/C(=N/O)Nc4ccc(F)c(Cl)c4)c3[nH]2)CC1 [Example 241, 2-(((1-aminocyclopropyl)methyl)amino)-N-(3-chloro-4-fluorophenyl)-N′-hydroxy-1H-imidazo[4,5-b]pyridine-7-carboximidamide] — 3.9-fold lower, 1.37 µM
- COCCNc1nc2nccc(C(=NO)Nc3ccc(F)c(Cl)c3)c2[nH]1 [Example 212, N-(3-chloro-4-fluorophenyl)-N′-hydroxy-2-((2-methoxyethyl)amino)-1H-imidazo[4,5-b]pyridine-7-carboximidamide] — 6-fold lower, 0.876 µM
- CC(C)(O)CNc1nc2c(F)c(F)cc(/C(=N/O)Nc3ccc(F)c(Cl)c3)c2[nH]1 [Example 292, N-(3-chloro-4-fluorophenyl)-4,5-difluoro-N′-hydroxy-2-((2-hydroxy-2-methylpropyl)amino)-1H-benzo[d]imidazole-7-carboximidamide] — 1.6-fold lower, 3.32 µM
- O/N=C(\Nc1ccc2c(c1)OC(F)(F)O2)c1ccnc2nc[nH]c12 [Example 74, N-(2,2-Difluorobenzo[d][1,3]dioxol-5-yl)-N′-hydroxy-1H-imidazo[4,5-b]pyridine-7-carboximidamide] — 5.7-fold lower, 0.923 µM
- NC(=O)CNc1nc2c(F)c(F)cc(/C(=N/O)Nc3ccc(F)c(Cl)c3)c2[nH]1 [Example 294, 2-((7-(N-(3-chloro-4-fluorophenyl)-N′-hydroxycarbamimidoyl)-4,5-difluoro-1H-benzo[d]imidazol-2-yl)amino)acetamide] — 1.9-fold higher, 9.95 µM
- CNCc1nc2c(F)ccc(/C(=N/O)Nc3ccc(F)c(Cl)c3)c2[nH]1 [Example 290, N-(3-chloro-4-fluorophenyl)-4-fluoro-N′-hydroxy-2-((methylamino)methyl)-1H-benzo[d]imidazole-7-carboximidamide] — 4.1-fold lower, 1.29 µM
- CNCc1nc2c(F)c(F)cc(/C(=N/O)Nc3cccc(Cl)c3)c2[nH]1 [Example 30, N-(3-Chlorophenyl)-4,5-difluoro-N′-hydroxy-2-((methylamino)methyl)-1H-benzo[d]imidazole-7-carboximidamide] — 4.8-fold lower, 1.11 µM
- CC(C)NCc1nc2c(F)ccc(/C(=N/O)Nc3ccc(F)c(Cl)c3)c2[nH]1 [Example 289, N-(3-chloro-4-fluorophenyl)-4-fluoro-N′-hydroxy-2-((isopropylamino)methyl)-1H-benzo[d]imidazole-7-carboximidamide] — 2.4-fold lower, 2.23 µM
- CN(C)CCc1nc2c(/C(=N/O)Nc3ccc(F)c(Cl)c3)cc(F)c(F)c2[nH]1 [Example 53, N-(3-Chloro-4-fluorophenyl)-2-(2-(dimethylamino)ethyl)-6,7-difluoro-N′-hydroxy-1H-benzo[d]imidazole-4-carboximidamide] — 5.8-fold lower, 0.916 µM
- OCc1nc2c(F)c(F)cc(/C(=N/O)Nc3cccc(Cl)c3)c2[nH]1 [Example 29, N-(3-Chlorophenyl)-4,5-difluoro-N′-hydroxy-2-(hydroxymethyl)-1H-benzo[d]imidazole-7-carboximidamide] — 3.4-fold lower, 1.54 µM
- O/N=C(\Nc1cc2ccccc2cc1Cl)c1ccnc2nc[nH]c12 [Example 103, N-(3-Chloronaphthalen-2-yl)-N′-hydroxy-1H-imidazo[4,5-b]pyridine-7-carboximidamide] — 1.5-fold higher, 8.07 µM
- O/N=C(\Nc1ccc(F)c(Cl)c1)c1ccnc2nc[nH]c12 [Example 59, N-(3-Chloro-4-fluorophenyl)-N′-hydroxy-1H-imidazo[4,5-b]pyridine-7-carboximidamide] — 25-fold lower, 0.208 µM
- O/N=C(\Nc1ccc(F)c(Cl)c1)c1ccc(Cl)c2nc[nH]c12 [Example 6, 4-Chloro-N-(3-chloro-4-fluorophenyl)-N′-hydroxy-1H-benzo[d]imidazole-7-carboximidamide] — 6.7-fold lower, 0.793 µM
- CC(C)NCCc1nc2nccc(/C(=N/O)Nc3ccc(F)c(Cl)c3)c2[nH]1 [Example 205, N-(3-chloro-4-fluorophenyl)-N′-hydroxy-2-(2-(isopropylamino)ethyl)-3H-imidazo[4,5-b]pyridine-7-carboximidamide] — 1.9-fold lower, 2.82 µM
- CS(=O)(=O)NCc1nc2nccc(/C(=N/O)Nc3ccc(F)c(Cl)c3)c2[nH]1 [Example 181, N-(3-Chloro-4-fluorophenyl)-N′-hydroxy-2-(methylsulfonamidomethyl)-1H-imidazo[4,5-b]pyridine-7-carboximidamide] — 1.7-fold higher, 8.97 µM
- CN(C)CCCNc1nc2c(F)c(F)cc(/C(=N/O)Nc3ccc(F)c(Cl)c3)c2[nH]1 [Example 39, N-(3-Chloro-4-fluorophenyl)-2-((3-(dimethylamino)propyl)amino)-4,5-difluoro-N′-hydroxy-1H-benzo[d]imidazole-7-carboximidamide] — 11-fold lower, 0.473 µM
- CCNc1nc2nccc(/C(=N/O)Nc3ccc(F)c(Cl)c3)c2[nH]1 [Example 163, N-(3-Chloro-4-fluorophenyl)-2-(ethylamino)-N′-hydroxy-1H-imidazo[4,5-b]pyridine-7-carboximidamide] — 4.9-fold lower, 1.08 µM
- O/N=C(\Nc1ccc(F)c(Cl)c1)c1ccnc2nc(NCCN3CCOCC3)[nH]c12 [Example 168, N-(3-Chloro-4-fluorophenyl)-N′-hydroxy-2-((2-morpholinoethyl)amino)-1H-imidazo[4,5-b]pyridine-7-carboximidamide] — 4.6-fold lower, 1.16 µM
- CN1CCCC(Nc2nc3nccc(/C(=N/O)Nc4ccc(F)c(Cl)c4)c3[nH]2)C1 (stereo not drawn) [Example 278, N-(3-chloro-4-fluorophenyl)-N′-hydroxy-2-((1-methylpiperidin-3-yl)amino)-1H-imidazo[4,5-b]pyridine-7-carboximidamide] — 4.9-fold lower, 1.07 µM
- O/N=C(\Nc1ccc(F)c(Cl)c1)c1ccnc2nc(C(O)C(F)(F)F)[nH]c12 (stereo not drawn) [Example 176, N-(3-Chloro-4-fluorophenyl)-N′-hydroxy-2-(2,2,2-trifluoro-1-hydroxyethyl)-1H-imidazo[4,5-b]pyridine-7-carboximidamide] — within 1.5-fold, 4.2 µM

Same assay, conditions: HeLa cells, IFNγ-induced IDO1, kynurenine in supernatant, 48 hour incubation; geometric mean of a minimum of four determinations

Point of comparison: `Nc1nc2cc(F)cc(/C(=N/O)Nc3ccc(F)c(Br)c3)c2[nH]1` [Example 373, 2-amino-N-(3-bromo-4-fluorophenyl)-5-fluoro-N′-hydroxy-1H-benzo[d]imidazole-7-carboximidamide], EC50 0.736 µM. Against it:
- N#CCCNc1nc2c(F)c(F)cc(/C(=N/O)Nc3ccc(F)c(Cl)c3)c2[nH]1 [Example 340, N-(3-chloro-4-fluorophenyl)-2-((2-cyanoethyl)amino)-4,5-difluoro-N′-hydroxy-1H-benzo[d]imidazole-7-carboximidamide] — 2.4-fold higher, 1.78 µM
- O/N=C(\Nc1ccc(F)c(Cl)c1)c1cc(F)c(F)c2nc(NCC3CCCNC3)[nH]c12 (stereo not drawn) [Example 304, N-(3-chloro-4-fluorophenyl)-4,5-difluoro-N′-hydroxy-2-((piperidin-3-ylmethyl)amino)-1H-benzo[d]imidazole-7-carboximidamide] — higher, > 10 µM
- CN(CCc1nc2nccc(/C(=N/O)Nc3ccc(F)c(Cl)c3)c2[nH]1)CCC1CCOCC1 [Example 401, N-(3-chloro-4-fluorophenyl)-N′-hydroxy-2-(2-(methyl(2-(tetrahydro-2H-pyran-4-yl)ethyl)amino)ethyl)-1H-imidazo[4,5-b]pyridine-7-carboximidamide] — within 1.5-fold, 0.581 µM
- CS(=O)(=O)NCCNc1nc2c(F)c(F)cc(/C(=N/O)Nc3ccc(F)c(Cl)c3)c2[nH]1 [Example 335, N-(3-chloro-4-fluorophenyl)-4,5-difluoro-N′-hydroxy-2-((2-(methylsulfonamido)ethyl)amino)-1H-benzo[d]imidazole-7-carboximidamide] — higher, > 10 µM
- CO[C@@H]1CN(C)C[C@H]1Nc1nc2nccc(/C(=N/O)Nc3ccc(F)c(Cl)c3)c2[nH]1 [Example 479, N-(3-chloro-4-fluorophenyl)-N′-hydroxy-2-(((3R,4R)-4-methoxy-1-methylpyrrolidin-3-yl)amino)-1H-imidazo[4,5-b]pyridine-7-carboximidamide] — within 1.5-fold, 1.07 µM
- CN1Cc2ccccc2C(Nc2nc3c(F)c(F)cc(/C(=N/O)Nc4ccc(F)c(Cl)c4)c3[nH]2)C1 (stereo not drawn) [Example 475, N-(3-chloro-4-fluorophenyl)-4,5-difluoro-N′-hydroxy-2-((2-methyl-1,2,3,4-tetrahydroisoquinolin-4-yl)amino)-1H-benzo[d]imidazole-7-carboximidamide] — 2.7-fold higher, 1.99 µM
- CN(C)CCNc1nc2c(F)c(F)cc(/C(=N/O)Nc3cccc(Br)c3)c2[nH]1 [Example 430, N-(3-bromophenyl)-2-((2-(dimethylamino)ethyl)amino)-4,5-difluoro-N′-hydroxy-1H-benzo[d]imidazole-7-carboximidamide] — 4.1-fold lower, 0.18 µM
